Laboratory results from ChEMBL document CHEMBL3991601, “The target landscape of clinical kinase drugs” (Science, 2017).
The source made the active and inactive calls. For most assays here, no stated cut-off is given here; in the data, actives have a measured Kd and inactives only a lower limit.

Tests used:
[1] = biological target: T1, Phosphorylase b kinase gamma catalytic chain, liver/testis isoform (Homo sapiens, UniProt P15735)
T1 sequence (P15735 whole entry): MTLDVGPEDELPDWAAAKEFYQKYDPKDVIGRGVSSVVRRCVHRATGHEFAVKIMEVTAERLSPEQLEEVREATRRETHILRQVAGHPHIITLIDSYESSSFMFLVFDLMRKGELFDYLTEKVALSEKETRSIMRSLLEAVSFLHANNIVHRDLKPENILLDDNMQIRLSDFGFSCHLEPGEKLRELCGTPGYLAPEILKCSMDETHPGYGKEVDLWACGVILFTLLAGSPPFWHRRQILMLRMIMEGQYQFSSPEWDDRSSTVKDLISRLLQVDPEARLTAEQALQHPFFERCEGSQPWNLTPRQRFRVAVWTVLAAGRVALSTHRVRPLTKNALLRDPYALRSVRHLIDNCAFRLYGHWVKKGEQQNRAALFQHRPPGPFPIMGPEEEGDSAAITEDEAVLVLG

[2] = biological target: Insulin-like growth factor 1 receptor (Homo sapiens, UniProt P08069)
Chain of Insulin-like growth factor 1 receptor (P08069 31-736 limits assumed): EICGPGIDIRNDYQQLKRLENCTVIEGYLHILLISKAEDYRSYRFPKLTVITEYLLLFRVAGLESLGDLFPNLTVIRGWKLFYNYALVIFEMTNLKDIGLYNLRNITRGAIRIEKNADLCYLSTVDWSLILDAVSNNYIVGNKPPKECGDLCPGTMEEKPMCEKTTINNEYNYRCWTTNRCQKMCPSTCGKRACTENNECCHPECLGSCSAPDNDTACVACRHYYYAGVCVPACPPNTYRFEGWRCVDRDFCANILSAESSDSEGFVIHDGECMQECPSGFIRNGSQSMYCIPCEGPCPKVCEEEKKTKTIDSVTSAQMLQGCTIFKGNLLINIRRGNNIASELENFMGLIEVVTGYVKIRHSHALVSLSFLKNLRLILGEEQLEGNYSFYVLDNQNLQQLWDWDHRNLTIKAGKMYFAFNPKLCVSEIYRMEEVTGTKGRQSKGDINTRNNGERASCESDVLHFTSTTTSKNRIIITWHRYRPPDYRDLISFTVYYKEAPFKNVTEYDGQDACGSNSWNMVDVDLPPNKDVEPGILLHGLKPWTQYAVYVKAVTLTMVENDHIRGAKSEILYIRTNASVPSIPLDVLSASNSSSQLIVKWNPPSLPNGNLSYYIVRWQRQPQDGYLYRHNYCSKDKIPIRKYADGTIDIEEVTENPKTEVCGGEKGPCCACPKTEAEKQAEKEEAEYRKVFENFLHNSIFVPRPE
Chain of Insulin-like growth factor 1 receptor (P08069 741-1367 limits assumed): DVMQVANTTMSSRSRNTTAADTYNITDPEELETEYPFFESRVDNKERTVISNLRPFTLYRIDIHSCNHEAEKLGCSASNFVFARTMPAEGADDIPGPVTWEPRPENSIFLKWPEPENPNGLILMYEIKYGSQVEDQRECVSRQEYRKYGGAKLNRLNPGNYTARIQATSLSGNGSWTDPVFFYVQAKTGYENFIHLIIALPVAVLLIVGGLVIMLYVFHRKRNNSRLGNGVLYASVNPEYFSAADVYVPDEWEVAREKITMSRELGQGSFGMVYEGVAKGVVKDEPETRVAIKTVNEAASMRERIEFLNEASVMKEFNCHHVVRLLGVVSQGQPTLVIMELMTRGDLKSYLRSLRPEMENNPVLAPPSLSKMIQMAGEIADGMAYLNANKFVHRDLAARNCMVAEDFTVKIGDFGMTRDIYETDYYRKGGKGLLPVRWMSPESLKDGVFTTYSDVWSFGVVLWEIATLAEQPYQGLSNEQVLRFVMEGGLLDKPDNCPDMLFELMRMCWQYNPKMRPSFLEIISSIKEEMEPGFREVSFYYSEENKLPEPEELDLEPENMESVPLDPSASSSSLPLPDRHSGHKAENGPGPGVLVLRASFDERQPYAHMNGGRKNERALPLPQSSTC

[3] = biological target: T2, Serine/threonine-protein kinase ULK1 (Homo sapiens, UniProt O75385)
T2 sequence (O75385 whole entry): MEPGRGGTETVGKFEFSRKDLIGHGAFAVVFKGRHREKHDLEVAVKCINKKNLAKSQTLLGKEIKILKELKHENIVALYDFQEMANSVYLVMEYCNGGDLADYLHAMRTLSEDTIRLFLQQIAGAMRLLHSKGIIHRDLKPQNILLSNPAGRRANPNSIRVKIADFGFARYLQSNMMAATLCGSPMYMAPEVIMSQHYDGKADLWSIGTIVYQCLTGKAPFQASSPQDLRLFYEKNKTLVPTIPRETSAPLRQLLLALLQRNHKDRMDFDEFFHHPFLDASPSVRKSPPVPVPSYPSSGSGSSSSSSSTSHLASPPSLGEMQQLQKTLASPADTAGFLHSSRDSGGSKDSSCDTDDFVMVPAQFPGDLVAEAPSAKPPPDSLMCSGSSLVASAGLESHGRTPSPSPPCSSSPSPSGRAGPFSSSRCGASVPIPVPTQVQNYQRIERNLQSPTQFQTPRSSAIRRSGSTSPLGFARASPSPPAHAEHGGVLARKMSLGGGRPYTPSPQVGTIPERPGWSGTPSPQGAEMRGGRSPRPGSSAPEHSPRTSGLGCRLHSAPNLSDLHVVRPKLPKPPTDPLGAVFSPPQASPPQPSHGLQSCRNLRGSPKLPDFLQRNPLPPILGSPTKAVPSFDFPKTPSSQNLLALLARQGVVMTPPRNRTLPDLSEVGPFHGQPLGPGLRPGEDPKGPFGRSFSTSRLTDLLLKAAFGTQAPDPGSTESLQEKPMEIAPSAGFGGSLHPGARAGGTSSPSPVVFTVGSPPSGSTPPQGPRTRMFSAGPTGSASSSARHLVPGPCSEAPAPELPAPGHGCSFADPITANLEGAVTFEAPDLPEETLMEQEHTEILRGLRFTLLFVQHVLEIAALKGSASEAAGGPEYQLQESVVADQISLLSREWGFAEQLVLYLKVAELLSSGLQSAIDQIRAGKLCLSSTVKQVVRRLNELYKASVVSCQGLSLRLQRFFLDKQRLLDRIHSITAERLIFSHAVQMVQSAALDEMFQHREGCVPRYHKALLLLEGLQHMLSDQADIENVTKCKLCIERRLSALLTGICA

[4] = biological target: T3, MAP kinase-activated protein kinase 5 (Homo sapiens, UniProt Q8IW41)
T3 sequence (Q8IW41 whole entry): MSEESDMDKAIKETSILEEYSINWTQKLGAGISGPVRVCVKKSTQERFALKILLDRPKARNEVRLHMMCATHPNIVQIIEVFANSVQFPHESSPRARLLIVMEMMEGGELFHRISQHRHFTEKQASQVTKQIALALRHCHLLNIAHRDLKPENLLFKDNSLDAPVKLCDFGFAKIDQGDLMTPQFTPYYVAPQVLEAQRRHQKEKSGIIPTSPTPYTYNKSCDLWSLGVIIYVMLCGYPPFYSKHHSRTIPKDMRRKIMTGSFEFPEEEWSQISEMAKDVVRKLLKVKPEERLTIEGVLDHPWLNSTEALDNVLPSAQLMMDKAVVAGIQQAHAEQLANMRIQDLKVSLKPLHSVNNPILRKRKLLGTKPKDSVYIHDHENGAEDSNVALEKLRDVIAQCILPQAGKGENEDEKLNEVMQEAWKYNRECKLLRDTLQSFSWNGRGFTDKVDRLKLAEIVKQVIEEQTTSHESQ

[5] = biological target: Calcium/calmodulin-dependent protein kinase kinase 2 (Homo sapiens, UniProt Q96RR4)
Chain of Calcium/calmodulin-dependent protein kinase kinase 2 (Q96RR4 whole entry): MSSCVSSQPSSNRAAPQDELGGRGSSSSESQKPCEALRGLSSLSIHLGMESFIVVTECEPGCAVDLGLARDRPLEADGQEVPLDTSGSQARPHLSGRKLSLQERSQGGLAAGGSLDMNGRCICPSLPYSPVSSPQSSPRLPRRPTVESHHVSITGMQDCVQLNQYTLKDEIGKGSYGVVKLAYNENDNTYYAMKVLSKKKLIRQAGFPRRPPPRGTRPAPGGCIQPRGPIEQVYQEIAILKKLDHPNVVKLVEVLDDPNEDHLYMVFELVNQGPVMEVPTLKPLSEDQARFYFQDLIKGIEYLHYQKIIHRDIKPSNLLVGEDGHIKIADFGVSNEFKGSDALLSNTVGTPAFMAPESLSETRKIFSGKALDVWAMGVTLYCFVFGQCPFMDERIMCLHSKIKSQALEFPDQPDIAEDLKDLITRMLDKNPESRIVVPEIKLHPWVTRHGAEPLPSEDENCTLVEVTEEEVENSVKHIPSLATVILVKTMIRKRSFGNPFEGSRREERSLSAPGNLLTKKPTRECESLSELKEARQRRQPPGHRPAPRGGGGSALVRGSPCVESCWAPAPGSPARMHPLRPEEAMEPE

Rab-like protein 3 = biological target: T4, Rab-like protein 3 (Homo sapiens, UniProt Q5HYI8)
T4 sequence (Q5HYI8 whole entry): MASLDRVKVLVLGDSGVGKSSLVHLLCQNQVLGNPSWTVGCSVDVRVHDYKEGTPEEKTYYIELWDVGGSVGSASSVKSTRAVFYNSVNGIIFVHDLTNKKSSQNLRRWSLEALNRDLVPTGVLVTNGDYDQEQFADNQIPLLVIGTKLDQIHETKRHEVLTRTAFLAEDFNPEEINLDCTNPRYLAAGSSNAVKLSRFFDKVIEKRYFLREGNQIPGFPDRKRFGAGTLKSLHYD

Focal adhesion kinase 1 = Focal adhesion kinase 1 (Homo sapiens, UniProt Q05397)
Chain of Focal adhesion kinase 1 (Q05397 whole entry): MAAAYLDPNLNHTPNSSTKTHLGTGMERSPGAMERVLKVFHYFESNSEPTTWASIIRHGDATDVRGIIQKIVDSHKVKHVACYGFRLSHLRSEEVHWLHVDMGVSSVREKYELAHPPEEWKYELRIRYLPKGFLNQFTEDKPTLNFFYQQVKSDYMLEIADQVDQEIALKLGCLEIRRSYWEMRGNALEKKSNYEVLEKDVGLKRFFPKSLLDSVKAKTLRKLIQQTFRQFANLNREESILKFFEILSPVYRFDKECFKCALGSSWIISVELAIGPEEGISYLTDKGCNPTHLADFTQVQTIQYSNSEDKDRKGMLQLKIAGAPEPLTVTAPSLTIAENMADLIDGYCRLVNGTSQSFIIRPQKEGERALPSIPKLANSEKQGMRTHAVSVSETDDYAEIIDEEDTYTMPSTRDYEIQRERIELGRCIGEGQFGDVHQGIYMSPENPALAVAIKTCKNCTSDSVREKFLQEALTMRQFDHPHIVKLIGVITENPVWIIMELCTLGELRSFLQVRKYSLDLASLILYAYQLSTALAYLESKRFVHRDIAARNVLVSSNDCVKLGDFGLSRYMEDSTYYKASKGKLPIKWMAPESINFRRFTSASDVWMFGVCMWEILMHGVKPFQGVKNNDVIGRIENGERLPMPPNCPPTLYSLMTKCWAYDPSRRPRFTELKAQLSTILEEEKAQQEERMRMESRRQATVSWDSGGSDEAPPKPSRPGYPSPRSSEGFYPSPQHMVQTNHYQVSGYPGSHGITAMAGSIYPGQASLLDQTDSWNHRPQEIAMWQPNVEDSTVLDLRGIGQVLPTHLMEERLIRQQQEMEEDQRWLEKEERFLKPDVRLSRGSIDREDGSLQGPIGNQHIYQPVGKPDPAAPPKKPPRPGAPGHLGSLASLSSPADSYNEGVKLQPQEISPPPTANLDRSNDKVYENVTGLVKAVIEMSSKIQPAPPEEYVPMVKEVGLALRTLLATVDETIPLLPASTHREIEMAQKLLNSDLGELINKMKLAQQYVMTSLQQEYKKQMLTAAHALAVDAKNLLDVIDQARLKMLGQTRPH

TGF-beta receptor type-2 = TGF-beta receptor type-2 (Homo sapiens, UniProt P37173)
Chain of TGF-beta receptor type-2 (P37173 whole entry): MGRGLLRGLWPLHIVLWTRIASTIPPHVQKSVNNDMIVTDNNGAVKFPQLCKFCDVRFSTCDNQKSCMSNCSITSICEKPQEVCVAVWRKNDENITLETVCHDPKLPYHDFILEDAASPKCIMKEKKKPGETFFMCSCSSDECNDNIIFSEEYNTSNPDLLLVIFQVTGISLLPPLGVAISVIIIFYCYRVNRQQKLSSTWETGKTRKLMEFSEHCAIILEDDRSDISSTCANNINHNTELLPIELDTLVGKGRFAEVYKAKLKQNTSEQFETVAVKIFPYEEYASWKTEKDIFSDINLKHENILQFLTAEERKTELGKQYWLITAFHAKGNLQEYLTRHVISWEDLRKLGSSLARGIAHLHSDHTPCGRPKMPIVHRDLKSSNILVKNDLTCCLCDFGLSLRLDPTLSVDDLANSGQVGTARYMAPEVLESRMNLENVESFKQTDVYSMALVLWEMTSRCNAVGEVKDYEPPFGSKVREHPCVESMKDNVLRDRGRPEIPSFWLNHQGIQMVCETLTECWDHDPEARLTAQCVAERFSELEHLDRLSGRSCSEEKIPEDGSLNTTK

SMILES | Kd [1] | Kd [2] | Kd [3] | Kd [4] | Kd [5] | Kd (Rab-like protein 3) | Kd (Focal adhesion kinase 1) | Kd (TGF-beta receptor type-2)
N[C@@H]1CCCN(c2c(/C=C3\SC(=O)NC3=O)cccc2-c2ccccc2)C1 | > 30 µM (inactive) | > 30 µM (inactive) | > 30 µM (inactive) | > 30 µM (inactive) | > 30 µM (inactive) | > 30 µM (inactive) | > 30 µM (inactive) | 
Cc1ccc(S(=O)(=O)Nc2nc3ccccc3nc2Nc2ccc3nsnc3c2)cc1 | > 30 µM (inactive) | > 30 µM (inactive) | > 30 µM (inactive) | > 30 µM (inactive) | > 30 µM (inactive) | > 30 µM (inactive) | > 30 µM (inactive) | > 30 µM (inactive)
CN1CC[C@@H](c2c(O)cc(O)c3c(=O)cc(-c4ccccc4Cl)oc23)[C@@H]1CO | > 30 µM (inactive) | > 30 µM (inactive) | > 30 µM (inactive) | > 30 µM (inactive) | > 30 µM (inactive) | > 30 µM (inactive) | > 30 µM (inactive) | > 30 µM (inactive)
Cc1cc(-c2cc(O)ccc2Cl)cc2nnc(Nc3ccc(OCCN4CCCC4)cc3)nc12 | > 30 µM (inactive) | > 30 µM (inactive) | > 30 µM (inactive) | > 30 µM (inactive) | > 30 µM (inactive) | > 30 µM (inactive) | > 30 µM (inactive) | > 30 µM (inactive)
CCN1CCN(Cc2ccc(-c3cc4c(N[C@H](C)c5ccccc5)ncnc4[nH]3)cc2)CC1 [AEE-788] | > 30 µM (inactive) | > 30 µM (inactive) | > 30 µM (inactive) | > 30 µM (inactive) | > 30 µM (inactive) | > 30 µM (inactive) | > 30 µM (inactive) | > 30 µM (inactive)
Cn1ncc(Cl)c1-c1cc(C(=O)N[C@H](CN)Cc2cccc(F)c2)sc1Cl [AFURESERTIB] | > 30 µM (inactive) | > 30 µM (inactive) |  | > 30 µM (inactive) | > 30 µM (inactive) | > 30 µM (inactive) | > 30 µM (inactive) | > 30 µM (inactive)
Cc1cc2c(F)c(Oc3ncnn4cc(OC[C@@H](C)OC(=O)[C@H](C)N)c(C)c34)ccc2[nH]1 [BRIVANIB ALANINATE] | > 30 µM (inactive) | > 30 µM (inactive) | > 30 µM (inactive) |  | > 30 µM (inactive) | > 30 µM (inactive) | > 30 µM (inactive) | > 30 µM (inactive)
Cc1nc(N)sc1-c1ccnc(Nc2ccc(N3CCOCC3)cc2)n1 [CYC-116] |  |  | > 30 µM (inactive) |  | 52.8 µM (active) | > 30 µM (inactive) | 13 µM (active) | 0.3 µM (active)
CCc1cnn2c(NCc3ccc[n+]([O-])c3)cc(N3CCCC[C@H]3CCO)nc12 [DINACICLIB] | > 30 µM (inactive) |  | > 30 µM (inactive) | > 30 µM (inactive) | > 30 µM (inactive) | > 30 µM (inactive) |  | > 30 µM (inactive)
CN1CCN(c2ccc3nc(-c4c(N)c5c(F)cccc5[nH]c4=O)[nH]c3c2)CC1 [DOVITINIB] |  |  |  |  |  | > 30 µM (inactive) |  | 
Cc1cc(Nc2cc(N3CCN(C)CC3)nc(/C=C/c3ccccc3)n2)n[nH]1 [ENMD-2076] |  |  |  |  | > 30 µM (inactive) |  |  | 2.35 µM (active)
CO[C@H]1C[C@@H]2CC[C@@H](C)[C@@](O)(O2)C(=O)C(=O)N2CCCC[C@H]2C(=O)O[C@H]([C@H](C)C[C@@H]2CC[C@@H](OCCO)[C@H](OC)C2)CC(=O)[C@H](C)/C=C(\C)[C@@H](O)[C@@H](OC)C(=O)[C@H](C)C[C@H](C)/C=C/C=C/C=C/1C [EVEROLIMUS] | > 30 µM (inactive) | > 30 µM (inactive) | > 30 µM (inactive) |  | > 30 µM (inactive) |  | > 30 µM (inactive) | > 30 µM (inactive)
COCCNCc1ccc(-c2cc3nccc(Oc4ccc(NC(=S)NC(=O)Cc5ccc(F)cc5)cc4F)c3s2)nc1 [GLESATINIB] | > 30 µM (inactive) | > 30 µM (inactive) | > 30 µM (inactive) |  | > 30 µM (inactive) | > 30 µM (inactive) | > 30 µM (inactive) | > 30 µM (inactive)
CCn1c(-c2nonc2N)nc2c(C#CC(C)(C)O)ncc(OC[C@H]3CCCNC3)c21 [GSK-690693] |  |  |  |  |  | > 30 µM (inactive) |  | 
Cc1cn(-c2cc(NC(=O)c3ccc(C)c(Nc4nccc(-c5cccnc5)n4)c3)cc(C(F)(F)F)c2)cn1 [NILOTINIB] |  |  |  |  |  | > 30 µM (inactive) |  | 
OCCn1cc(-c2cnc3nnn(Cc4ccc5ncccc5c4)c3n2)cn1 [PF-04217903] | > 30 µM (inactive) |  | > 30 µM (inactive) | > 30 µM (inactive) | > 30 µM (inactive) | > 30 µM (inactive) |  | > 30 µM (inactive)
CNC(=O)c1ccc(C)c(-n2c(C)cc(OCc3ccc(F)cc3F)c(Br)c2=O)c1 [PH-797804] | > 30 µM (inactive) | > 30 µM (inactive) |  | > 30 µM (inactive) | > 30 µM (inactive) | > 30 µM (inactive) | > 30 µM (inactive) | > 30 µM (inactive)
CN(C)C(=O)c1cc2cnc(Nc3ccc(N4CCNCC4)cn3)nc2n1C1CCCC1 [RIBOCICLIB] | > 30 µM (inactive) | > 30 µM (inactive) | > 30 µM (inactive) |  | > 30 µM (inactive) | > 30 µM (inactive) | > 30 µM (inactive) | > 30 µM (inactive)
O=C(Nc1cccc(Cl)c1)Nc1ncc(CCNc2ncnc3ccsc23)s1 [SNS-314] |  |  | > 30 µM (inactive) |  | > 30 µM (inactive) | > 30 µM (inactive) |  | > 30 µM (inactive)
CN1CCC(COc2cnc(-c3cccc(Cn4nc(-c5cccc(C#N)c5)ccc4=O)c3)nc2)CC1 [TEPOTINIB] | > 30 µM (inactive) | > 30 µM (inactive) | > 30 µM (inactive) | > 30 µM (inactive) | > 30 µM (inactive) |  | > 30 µM (inactive) | > 30 µM (inactive)
Nc1nc(N)c2nc(-c3cccc(O)c3)c(-c3cccc(O)c3)nc2n1 [TG100-115] |  |  |  |  |  | > 30 µM (inactive) |  | 
COc1cc2nccc(Oc3ccc(NC(=O)Nc4cc(C)on4)c(Cl)c3)c2cc1OC [TIVOZANIB] | > 30 µM (inactive) | > 30 µM (inactive) | > 30 µM (inactive) |  | > 30 µM (inactive) | > 30 µM (inactive) | > 30 µM (inactive) | > 30 µM (inactive)
CCn1c(=O)c(-c2cc[nH]n2)cc2c(C)nc(N)nc21 [VOXTALISIB] | > 30 µM (inactive) | > 30 µM (inactive) | > 30 µM (inactive) | > 30 µM (inactive) | > 30 µM (inactive) |  | > 30 µM (inactive) | 
